# Laboratory results: patent US20260049140A1 (Janux Therapeutics, Inc., priority 2023, published 2026)
# Read-outs that look alike come from different tables or passages of the source.
# Target: wild-type and mutant CD3 binding domains harbored within TROP2 TCE constructs
# Test: ELISA binding of peptide masks to wild-type and mutated TROP2 TCEs
# Details: captured biotinylated peptide or CD3-biotin
# [1] = read-out: TCE-3 (3075) (R100A) EC50, binding of TCE-3, anti-CD3 R100A
# [2] = read-out: TCE-7 (3079) (F104A) EC50, binding of TCE-7, anti-CD3 F104A
# [3] = read-out: TCE-13 (3085) (S110A) EC50, binding of TCE-13, anti-CD3 S110A
# [4] = read-out: TCE-14 (3086) (Y111A) EC50, binding of TCE-14, anti-CD3 Y111A
# [5] = read-out: TCE-15 (3087) (W112A) EC50, binding of TCE-15, anti-CD3 W112A
# [6] = read-out: TCE-19 (3091) (W233A) EC50, binding of TCE-19, anti-CD3 W233A
# [7] = read-out: TCE-24 (3096) (W238A) EC50, binding of TCE-24, anti-CD3 W238A
# [8] = read-out: TCE-26 (3098) (F240A) EC50, binding of TCE-26, anti-CD3 F240A
# [9] = read-out: TCE-4 (3076) (H101A) EC50, binding of TCE-4, anti-CD3 H101A
# [10] = read-out: TCE-6 (3078) (N103A) EC50, binding of TCE-6, anti-CD3 N103A
# Description: Binding was measured in a standard ELISA format. […] Bound TCEs were detected using a standard horse radish peroxidase conjugate secondary antibody. The ELISA signal was plotted versus the log-scale concentration of TCE. The concentrations of TCE required to observe half maximal binding signal (EC50s) were calculated using Graphpad Prism software.
smiles,measurement,setting,value
CC(C)C[C@@H]1NC(=O)[C@@H](NC(=O)[C@H](CCC(N)=O)NC(=O)[C@H](CO)NC(=O)CN)CSSC[C@@H](C(=O)N2CCC[C@H]2C(=O)N[C@@H](Cc2ccc(O)cc2)C(=O)O)NC(=O)[C@H](C(C)C)NC(=O)[C@H](CCC(=O)O)NC(=O)[C@H](Cc2c[nH]c3ccccc23)NC(=O)[C@H](CCC(=O)O)NC(=O)[C@@H]2CCCN2C(=O)CNC1=O [Peptide-2],EC50,[1],0.58 nM
same,EC50,[2],0.63 nM
same,EC50,[3],3.65 nM
same,EC50,[4],49.1 nM
same,EC50,[5],26.4 nM
same,EC50,[6],6.28 nM
same,EC50,[7],6.34 nM
same,EC50,[8],8.02 nM
CC(C)C[C@@H]1NC(=O)[C@H](CC(=O)O)NC(=O)[C@H](C(C)C)NC(=O)[C@H](CC(C)C)NC(=O)[C@@H](NC(=O)[C@H](CCC(=O)O)NC(=O)[C@@H](N)CO)CSSC[C@@H](C(=O)N[C@@H](Cc2ccc(O)cc2)C(=O)N[C@@H](Cc2c[nH]c3ccccc23)C(=O)O)NC(=O)[C@@H]2CCCN2C(=O)[C@H](CC(=O)O)NC(=O)[C@H](CO)NC(=O)[C@H](CCC(N)=O)NC1=O [Peptide-5],EC50,"read-out: TCE-1 (2340) (wt) EC50, binding of TCE-1, wild-type anti-CD3",0.3 nM
same,EC50,[1],8.73 nM
same,EC50,[9],6.94 nM
same,EC50,[10],1.69 nM
same,EC50,[2],1.93 nM
same,EC50,[3],0.95 nM
same,EC50,[4],572 nM
same,EC50,[5],48.2 nM
same,EC50,[6],0.35 nM
same,EC50,[7],0.29 nM
same,EC50,[8],0.76 nM
same,EC50,"read-out: TCE-27 (3099) EC50, binding of TCE-27",0.31 nM
CC(C)C[C@@H]1NC(=O)[C@@H](NC(=O)[C@H](C)NC(=O)[C@H](CO)NC(=O)CN)CSSC[C@@H](C(=O)N2CCC[C@H]2C(=O)N[C@@H](Cc2ccc(O)cc2)C(=O)O)NC(=O)[C@H](C(C)C)NC(=O)[C@H](CCC(=O)O)NC(=O)[C@H](Cc2c[nH]c3ccccc23)NC(=O)[C@H](CCC(=O)O)NC(=O)[C@@H]2CCCN2C(=O)CNC1=O [Peptide-11],EC50,[1],0.76 nM
same,EC50,[9],1.05 nM
same,EC50,[2],0.88 nM
same,EC50,[3],3.82 nM
same,EC50,[4],95.6 nM
same,EC50,[5],38.2 nM
same,EC50,[6],6.26 nM
same,EC50,[7],7.08 nM
same,EC50,[8],9.2 nM
CSCC[C@H](NC(=O)[C@@H]1CSSC[C@H](NC(=O)[C@H](Cc2ccc(O)cc2)NC(=O)[C@@H](N)C(C)C)C(=O)NCC(=O)N2CCC[C@H]2C(=O)N[C@@H](CCC(=O)O)C(=O)N[C@@H](Cc2ccccc2)C(=O)N[C@@H](CC(=O)O)C(=O)N[C@@H](CCC(=O)O)C(=O)N[C@@H](CO)C(=O)N[C@@H](C(C)C)C(=O)NCC(=O)N1)C(=O)O [Peptide-3],EC50,[1],1.76 nM
same,EC50,[10],0.2 nM
same,EC50,[3],0.66 nM
same,EC50,[4],77.7 nM
same,EC50,[5],10.5 nM
same,EC50,[6],6.46 nM
same,EC50,[7],5.96 nM
same,EC50,[8],5.78 nM
same,EC50,"read-out: TCE-28 (3100) EC50, binding of TCE-28",0.41 nM
CC(C)C[C@@H]1NC(=O)[C@@H](NC(=O)[C@H](CCC(N)=O)NC(=O)[C@H](CO)NC(=O)[C@H](C)N)CSSC[C@@H](C(=O)N2CCC[C@H]2C(=O)N[C@@H](Cc2ccc(O)cc2)C(=O)O)NC(=O)[C@H](C(C)C)NC(=O)[C@H](CCC(=O)O)NC(=O)[C@H](Cc2c[nH]c3ccccc23)NC(=O)[C@H](CCC(=O)O)NC(=O)[C@@H]2CCCN2C(=O)CNC1=O [Peptide-10],EC50,[1],0.68 nM
same,EC50,[9],0.83 nM
same,EC50,[10],0.36 nM
same,EC50,[2],0.66 nM
same,EC50,[3],3.46 nM
same,EC50,[4],64.2 nM
same,EC50,[5],23.4 nM
same,EC50,[6],5.47 nM
same,EC50,[7],5.33 nM
same,EC50,[8],5.9 nM
CSCC[C@H](NC(=O)[C@@H]1CSSC[C@H](NC(=O)[C@H](Cc2ccc(O)cc2)NC(=O)[C@H](C)N)C(=O)NCC(=O)N2CCC[C@H]2C(=O)N[C@@H](CCC(=O)O)C(=O)N[C@@H](Cc2ccccc2)C(=O)N[C@@H](CC(=O)O)C(=O)N[C@@H](CCC(=O)O)C(=O)N[C@@H](CO)C(=O)N[C@@H](C(C)C)C(=O)NCC(=O)N1)C(=O)O [Peptide-8],EC50,[1],1.85 nM
same,EC50,[9],1.36 nM
same,EC50,[3],0.76 nM
same,EC50,[4],76.9 nM
same,EC50,[5],11.2 nM
same,EC50,[6],6.43 nM
same,EC50,[7],5.66 nM
same,EC50,[8],5.78 nM
